Assays:
[1] = Test 5: inhibition of radical production from FeII (deoxyribose degradation); conditions: 10^-4 M methanolic solution, 37° C. one hour, absorbance 532 nm
Protocol: Test 5 is a […] test wherein 0.1 ml aliquots of 10^−4 M methanolic solutions of the tested products are added to test tubes containing a solution formed by 0.2 ml of 2 mM desoxyribose, 0.4 ml of phosphate buffer pH 7.4 100 mM and 0.1 ml of 1 mM Fe^II(NH4)2(SO4)2 in 2 mM HCl. The test tubes are then maintained at 37° C. for one hour. Then in each test tube 0.5 ml of a 2.8% solution in water of trichloroacetic acid and 0.5 ml of an aqueous 0.1 M solution of thiobarbituric acid are added, in the order. A reference blank is formed by adding to a test tube containing only the above described aqueous solution of reactants 0.1 ml of methanol. The test tubes are closed and heated in an oil bath at 100° C. for 15 minutes. A pink coloration is developed the intensity of which is proportional to the quantity of desoxyribose undergone to radical oxidative degradation. The solutions are cooled at room temperature and their absorbances are read at 532 nm against the blank. The inhibition induced by the precursor of B or B1 or C=-Tc-Y—H in the confront of radical production by Fe^II is determined by means of the following formula: (1−As/Ac)×100 wherein As and Ac are respectively the absorbance values of the solution containing the tested compound+the iron salt and that of the solution containing only the iron salt, the compound meets test 5 when the inhibition percentage of radical production as above defined from the precursor of B or B1 or C=-Tc-Y—H is higher than or equal to 50%. […]
0.1 ml aliquots of 10^−4 M methanolic solutions of 4-thiazolidin carboxylic acid and 2-oxo-4-thiazolidin carboxylic acid are added to test tubes containing an aqueous solution formed by mixing 0.2 ml of 2 mM deoxyribose, 0.4 ml of buffer phosphate pH 7.4 100 mM and 0.1 ml of 1 mM Fe^II(NH4)2(SO4)2 in 2 mM HCl. […] A pink coloration develops the intensity of which is proportional to the quantity of deoxyribose undergone to radical oxidative degradation. The solutions are cooled at room temperature and their absorbances at 532 nm are read against the blank. […]

[2] = Test 4: inhibition of radical production from DPPH; conditions: tested substance 100 μM in methanol, 30 minutes, absorbance 517 nm
Protocol: Test 4 is a colorimetric test which must not be satisfied by the precursor of B or B1 (precursor of the X2 or X2a of the formulas (I) and (II) respectively). The inhibition of the production of radicals from DPPH (2,2-diphenyl-1-picryl-hydrazyl) is described in M. S. Nenseter et Al., Atheroscler. Thromb. 15, 1338-1344, 1995. 100 μM solutions in methanol of the tested substances are prepared, and an aliquot of each of said solutions is added to a DPPH solution in methanol 0.1 M. After having stored the solutions at room temperature away from light for 30 minutes, their absorbances are read at the wave length of 517 nm, together with that of the corresponding DPPH solution at the same concentration. The absorbance decrease with respect to that of the solution of DPPH at the same concentration of the test solutions is determined. The effectiveness of the tested compound in inhibiting formation of radicals by DPPH is expressed by the following formula: (1−AS/AC)×100 wherein AS and AC are respectively the absorbance values of the solution containing the test compound together with DPPH and of the solution containing only DPPH. Test 4 is satisfied when the inhibition is equal or greater than 50%.
Test 4: Inhibition of the Radical Production from DPPH of Some Substances Used as Precursors of B or B1 (Ref. Formulas I and II of the Invention)
The method is based on a calorimetric test in which DPPH (2,2-diphenyl-1-picryl-hydrazyl) is used as the compound-forming radicals (M. S. Nenseter et Al., Atheroscler. Thromb. 15, 1338-1344, 1995).
Solutions in methanol of the tested substances at a final concentration 100 μM are initially prepared. 0.1 ml of each of these solutions are added to aliquots of 1 ml of a methanol solution 0.1 M of DPPH and then the final volume is brought to 1.5 ml. After having stored the solutions at room temperature away from light for 30 minutes, the absorbance at the wave length of 517 nm is read. It is determined the absorbance decrease with respect to the absorbance of a solution containing the same concentration of DPPH.
The efficacy of the test compound to inhibit the production of radicals, or antiradical activity, is expressed by the following formula: (1−AS/AC)×100 wherein AS and AC are, respectively, the absorbance values of the solution containing the test compound together+DPPH and of the solution containing only DPPH.

gastrointestinal mucosa = assay: Test 1 (NEM): gastric tolerability of precursor drugs in rats treated or not with N-ethylmaleimide; conditions: rat, in vivo, 24 h
Protocol: The animals (rats) are distributed in the following groups (no. 10 animals for group):
• 1° group: treatment: only carrier (aqueous suspension 1% w/v of carboxymethylcellulose, dose: 5 ml/Kg when the drug is administered by os, or a physiologic solution when parenterally administered, i.e. by subcutaneous, intraperitoneal, intravenous or intramuscular route), • 2° group: treatment: carrier as above defined+NEM, B) Groups Treated with the Drug: • group I: treatment: carrier+drug, • group II: treatment: carrier+drug+NEM.
The administration routes are those known for the drug, and can be the oral or subcutaneous, intraperitoneal, intravenous or intramuscular route.
(§1) The animals are sacrificed after 24 hours and then one proceeds to the evaluation of the damage to the gastrointestinal mucosa.
Test 1—Experimental Model in Vivo with N-ethylmaleimide (NEM): Study of the Gastric Tolerability of Some Drugs Screened as Precursors of the Compounds of the Invention.
The animals (rats, weight about 200 g) are distributed in the following groups (No. 10 animals for group):
• 1° group: treatment: only carrier (aqueous suspension 1% w/v of carboxymethylcellulose, dose: 5 ml/Kg when the drug is administered by os, physiologic solution when by parenteral route), • 2° group: treatment: carrier+NEM B) Groups Administered with Each Drug: • group I: treatment: carrier+drug, • group II: treatment: carrier+drug+NEM.
The drug is administered one hour later, in suspension in the carrier. Animals are sacrificed after 24 hours and evaluation of the damage to the gastrointestinal mucosa is made by counting the number of rats, inside each group, with lesions to the stomach at a visual inspection. The total number of said rats is then divided by the total number of rats of the group and multiplied by 100.

in vivo = conditions: rat, in vivo
Protocol: as §1

[3] = system: gastrointestinal mucosa, GPT, blood pressure; conditions: rat, in vivo; for Gastroenteropathy % without L-NAME: 4 weeks
Protocol: The endothelial dysfunction is evaluated by determining the damage to the gastrointestinal mucosa, the hepatic damage and blood hypertension induced by administration of L-NAME.
The animals (rats) are divided in groups as herein below shown. The group receiving L-NAME is treated for 4 weeks with said compound dissolved at a concentration of 400 mg/litre in drinking water. The following groups are constituted (No. 10 animals for group):
• 1° group: only carrier (aqueous suspension 1% w/v of carboxymethylcellulose, dose: 5 ml/Kg when the drug is administered by os, phisiologic solution when administered parenterally), • 2° group: carrier+L-NAME, B) Groups Administered with the Drug: • 3° group: carrier+drug, • 4° group: carrier+drug+L-NAME.
The administration routes are those known for the drug, and can be the oral or subcutaneous, intraperiteneal, intravenous or intramuscular route. […] The drug is administered once a day for 4 weeks.
At the end of the four weeks treatment access to water is prevented and after 24 hours the animals are sacrificed.
One hour before the sacrifice blood-pressure is determined, and a blood pressure increase is taken as an evaluation of the damage to vascular endothelium. […] The hepatic damage is determined by evaluation of the glutamic-pyruvic transaminase (GPT increase) after sacrifice.
Test 3-Experimental in Vivo Model with N^w-nitro-L-arginine-methyl ester (L-NAME): Gastric Tolerability (Gastrointestinal Damage Incidence), Hepatic (GPT Dosage, Glutamic-pyruvic Transaminase) and Cardiovascular (Blood Pressure) Tolerability of Some Drugs Screened as Precursors of the Compounds of the Invention.
The endothelial dysfunction is evaluated by determining the damage induced by L-NAME administration to the gastrointestinal mucosa, the hepatic damage (GPT increase), and the vascular endothelium or cardiovascular damage as blood hypertension.
The animals (rats, average weight 200 g) are divided in groups as herein below described. The group receiving L-NAME is treated for 4 weeks with said compound dissolved at the concentration of 400 mg/litre in drinking water. The following groups (No. 10 animals for group) are constituted:
• 1° group: treatment: only carrier (aqueous suspension 1% w/v of carboxymethylcellulose, dose: 5 ml/Kg when the drug is administered by os, physiologic solution when by parenteral route), • 2° group: treatment: carrier+L-NAME, B) Groups Treated with the Drug: • 3° group: treatment: carrier+drug, • 4° group: treatment: carrier+drug+L-NAME.
Each drug is administered once a day for 4 weeks.
At the end of the four weeks access to water is prevented and after 24 hours the animals are sacrificed.
One hour before the sacrifice blood pressure is determined and a blood pressure increase is taken as an indication of a damage being occurred to vascular endothelium.
The hepatic damage is determined by evaluation after the sacrifice of the glutamic-pyruvic transaminase (GPT increase).
The % gastric lesions have been determined as in Test 1.

[4] = system: Human endothelial cells of the umbilical vein; assay: Test 2 (CIP): apoptosis (DNA fragmentation) induced by cumene hydroperoxide in endothelial cells; type: cell-based; conditions: drug 10^-4 M; for inhibition of apoptosis induced by CIP (in words, t Student p<0.01): CIP 5 mM
Protocol: Test 2 (CIP): Protection parameter of endothelial cell against the oxidative stress induced by cumene hydroperoxide (CIP).
Human endothelial cells of the umbilical vein are prepared according to an usual standard procedure. Fresh umbilical veins are filled with a 0.1% by weight collagenase solution and incubated at 37° C. for 5 minutes.
The cells are collected from the perfusate by centrifugation and harvested in culture flasks T-75, pretreated with human fibronectin. The cells are then harvested in the same medium, further added with 10 ng/ml of bovine hypothalamic growth factor. When the cells of the primary cell culture (i.e. that directly obtained from ex-vivo) form a single layer of confluent cells (about 8,000,000 cells/flask), the culture is stopped and the layers washed and trypsinized. The cellular suspensions are transferred into the wells of a cell culture plate having 24 wells, half of which is then additioned with the same culture medium containing the drug at a 10^−4M concentration, and harvested in a thermostat at 37° C. at a constant moisture. Only the cells coming from said first sub-cultures are used for the experiments with cumene hydroperoxide (CIP).
Before starting the test, the cellular culture medium is removed and the cellular layers are carefully washed with a physiologic solution at a temperature of 37° C. The wells of the culture plate are then incubated for one hour with CIP at a 5 mM concentration in the culture medium. […] 5 replicates for each sample are carried out.
Human endothelial cells of the umbilical vein are prepared according to a standard method. Fresh umbilical veins are filled with a collagenase solution 0.1% by weight and incubated at 37° C. for 5 minutes.
The cells are collected from the perfusate by centrifugation at 800 rpm and harvested in culture flasks T-75, pretreated with human fibronectin. Cells are then harvested in the same medium, added with bovine hypothalamic growth factor (100 ng/ml). When the cells of the primary cell culture (the cells directly removed from ex-vivo umbilical vein) form a single layer of confluent cells (about 8,000,000 cells/flask), harvesting is stopped and the layers are washed and trypsinized. The cellular suspensions are transferred into wells of a culture plate having 24 wells, half of said wells being added with the same culture medium containing the drug at a 10^−4M concentration, and harvested in a thermostat at 37° C. at a constant moisture (90%), CO2=5%. When the drug is not soluble in the culture medium, it is formerly dissolved in a small amount of dimethylsulphoxide. The maximum amount of dimethylsulphoxide which can be added to the culture medium is 0.5%. Only the cells coming from these first subcultures are used for the tests with cumene hydroperoxide (CIP). The cells are identified as endothelial cells by morphological examination and by the specific immunological reaction towards factor VIII; these cultures did never show contaminations from myocytes or fibroblasts.
Before starting the test, the cellular culture medium is removed and the cellular layers are carefully washed with a standard physiologic solution buffered with phosphate 0.1 M pH 7.0, at the temperature of 37° C. The content of each well is then incubated for one hour with a CIP suspension in the culture medium at a 5 mM concentration. Evaluation of the cellular damage (apoptosis) is carried out by determining the percent variation of the DNA fragmentation in the cultures containing the drug+CIP with respect to the controls treated with CIP only. […] The fluorescence of each sample was determined on 5 replicates. Statistic evaluation has been made with t Student test (p<0.01).

gastric mucosa = assay: Example F6: gastric tolerability of invention compounds versus precursor drugs, with or without L-NAME; type: in vivo, rats; conditions: rat, in vivo, 4 weeks
Description: Gastric Tolerability Test of the Compounds According to the Invention in the Confront of the Corresponding Precursor Drugs in Conditions of Endothelial Dysfunctions Induced by L-NAME (N^w-nitro-L-arginine-methyl ester).

N[C@@H](Cc1c[nH]cn1)C(=O)O [histidine]
% Radical Inhibition from Fe^II [1]: 90%
% inhibition radical production from DPPH [2]: 0%

COc1ccc2[nH]c([S+]([O-])Cc3ncc(C)c(OC)c3C)nc2c1 (centres unmarked) [Omeprazol]
Gastro-enteropathy (% incidence) without NEM (gastrointestinal mucosa): 0%
MTD at 24 h (in vivo; sc): 30 mg/kg
GPT % without L-NAME [3]: 100%
Gastroenteropathy % without L-NAME [3]: 0%
inhibition of apoptosis induced by CIP (in words, t Student p<0.01) [4]: do not significantly inhibit apoptosis

O=C(O)C1CSCN1 (centres unmarked) [4-thiazolidin carboxylic acid]
% Radical Inhibition from Fe^II [1]: 100%
% inhibition radical production from DPPH [2]: 0%
% inhibition radical production from DPPH ([2]; listed as 4-Thiazolidincarboxylic acid): does not inhibit at any extent

COc1cccc2c1C(=O)c1c(O)c3c(c(O)c1C2=O)C[C@@](O)(C(=O)CO)C[C@@H]3O[C@H]1C[C@H](N)[C@H](O)[C@H](C)O1 [Doxorubicin]
GPT % without L-NAME [3]: 195%
Gastroenteropathy % without L-NAME [3]: 30%

O=C(O)CCC(=O)O [succinic acid]
% Radical Inhibition from Fe^II [1]: 90%
% inhibition radical production from DPPH [2]: 0%

Nc1c(Br)cc(Br)cc1CN[C@H]1CC[C@H](O)CC1 [Ambroxol, 4-[(2-amino-3,5-dibromophenyl)methylamino]cyclohexanol]
Gastro-enteropathy (% incidence) without NEM (gastrointestinal mucosa): 0%
% gastropathy, animals not treated with L-NAME (gastric mucosa): 60%
% gastropathy, animals treated with L-NAME (gastric mucosa): 80%
MTD at 24 h (in vivo; po): 25 mg/kg
activity at 100 µM ([4]; Homo sapiens, Endothelial cell, 1 h, CIP 5 mM for one hour, DNA fragmentation, read-out: Apoptosis % with respect to the controls treated only with CIP): 70%
inhibition of apoptosis induced by CIP (in words, t Student p<0.01) [4]: inhibit apoptosis

Nc1c2c(nc3ccccc13)CCCC2 [Tacrine]
Gastro-enteropathy (% incidence) without NEM (gastrointestinal mucosa): 0%
% gastropathy, animals not treated with L-NAME (gastric mucosa): 80%
% gastropathy, animals treated with L-NAME (gastric mucosa): 70%
MTD at 24 h (in vivo; sc): 1 mg/kg
inhibition of apoptosis induced by CIP (in words, t Student p<0.01) [4]: do not significantly inhibit apoptosis

COc1ccc2c(c1)c(CC(=O)O)c(C)n2C(=O)c1ccc(Cl)cc1 [Indomethacin]
Gastro-enteropathy (% incidence) without NEM (gastrointestinal mucosa): 0%
MTD at 24 h (in vivo; po): 7.5 mg/kg
inhibition of apoptosis induced by CIP (in words, t Student p<0.01) [4]: not significantly different with respect to that of the controls
inhibition of apoptosis induced by CIP (in words, t Student p<0.01) ([4]; listed as indomethacin): do not significantly inhibit apoptosis

Source: patent publication US7402600B2, “Nitroderivatives of cardiovascular agents” (NicOx S.A., priority 1999, dated 2008)
